Assay results reported in patent US20230310395A1, “TOPICAL ROFLUMILAST COMPOSITIONS AND USES THEREOF” (Sol-Gel Technologies Ltd., priority 2020, published 2023).

Assays:
[1] = according to the roflumilast DrugBank monograph; cited from earlier work
[2] = tested on: psoriasis-induced xenotransplants (human skin grafted on beige-SCID mice, injected with PBMC's from psoriatic patients); experiment: Efficacy study in psoriasis-induced human skin xenotransplants on beige-SCID mice, histological evaluation; format: in vivo; conditions: topical treatment for 14 days (Day 42-56), histology at Day 56
From the text: The objective of this study was to determine the efficacy of Roflumilast as provided herein (at Examples 4 and 5) compared to the vehicle and Dexamethasone as shown at the Table 3. The evaluation was based on histology analysis following application of the respective test formulations.
The efficacy study has been conducted on female mice. The total duration of the experiment was 8 weeks, upon receiving of the human skin. Normal skin from healthy volunteers were obtained for grafting. Healthy human abdominal skin pieces with a width of 0.4 mm and surface area of 1.5×1.5 cm were provided. The skin sample was preserved in isotonic saline solution and transplanted within 6-12 hours after skin donation. In addition, blood samples were collected from psoriatic patients having classic plaque psoriasis and not undergoing any treatment. 20 mL blood samples were taken from both males and females psoriatic patients (from psoriatic patients having classic plaque psoriasis and not undergoing any treatment), and peripheral blood mononuclear cells (PBMC) were separated immediately after blood withdrawal.
Mice: Beige-severe combined immunodeficient mice C.B-17/IcrHsdscid-bg (beige-SCID) mice (weight ˜25 g) were included in this study. Mice were monitored twice a week for vital signs such as weight, food intake, coat, eyes, anal genital areas, discharge/soiling, behavior and criteria related to skin transplantation. Normal healthy human donor skin were transplanted onto the beige-SCID mice as previously described (See Keren A. et al., Novel nanosome delivery system combined with siRNA targeting the antimicrobial gene DFB4: a new approach for psoriasis management? Exp Dermatol. 2014; 23:464-465; Bracke S. et al., Targeted silencing of DEFB4 in a bioengineered skin-humanized mouse model for psoriasis: development of siRNA SECosome-based novel therapies. Exp Dermatol. 2014 ;23:199-201; Zaretsky M. et al., Directed evolution of a soluble human IL-17A receptor for the inhibition of psoriasis plaque formation in a mouse model. Chem Biol. 2013 21; 20:202-2; Gilhar A. et al., The beneficial effect of blocking Kv1.3 in the psoriasiform SCID mouse model. J Invest Dermatol. 2011;131:118 124; Keren A. et al., Innate lymphoid cells 3 induce psoriasis in xenotransplanted healthy human skin. J Allergy Clin Immunol. 2018;142:305-308.e6.).
British Journal of Pharmacology 2010; 159:842-855).
Four weeks following the engraftment, each mouse was injected (intradermally) with 1×10^7 IL-2 enriched allogeneic PBMC's from psoriatic patients (1×10^7 cells injected/mouse). Cells from different psoriasis patients were equally distributed between treatment groups. Each patient was represented in each treatment group.
Fourteen days following cells injections, the mice were divided into treatment groups (Table 4, see below) and treated according to the timeline indicated below (see Scheme 1). Each transplant was equally topically treated (50 μg) by using a sterile spatula.
Dexamethasone (D2915, Sigma): was freshly prepared for each administration by dilution in saline to final concentration (50 mg/ml). Dexamethasone serves as a positive control and was administered topically twice daily for 14 days following cells injections (at Day 42 following human skin transplantation) until the end of the study (Day 56).
The vehicle was administered topically (50 μg) once daily for 14 days as well.
On Day 56, the entire skin graft was excised and placed in 10% formaldehyde in saline overnight. Then, the specimens were placed in 70% ethanol and embedded and stained according to the standard Hematoxylin/Eosin protocol.
Skin graft histological assessment was performed (according to the psoriatic criteria including epidermal thickness) using light microscopy, and two observers blindly performed the evaluations. Epidermal thickness was determined using an ocular micrometer at a minimum of 50 points along the epidermis selected to represent points of maximal and minimal thickness. […]

[3] = number of grafts/mice out of 10

SMILES | calculated water solubility [1] | Complete Recovery [2, 3] | Partial Recovery [2, 3] | Psoriatic Features [2, 3] | Complete Recovery (%) ([2]; percent of grafts/mice) | Partial Recovery (%) ([2]; percent of grafts/mice) | Psoriatic Features (%) ([2]; percent of grafts/mice)
O=C(Nc1c(Cl)cncc1Cl)c1ccc(OC(F)F)c(OCC2CC2)c1 [Roflumilast, 3-(cyclopropylmethoxy)-n-(3,5-dichloropyridin-4-yl)-4-(difluoromethoxy)-benzamide] | 6.2 µg/mL |  |  |  |  |  | 
C[C@@H]1C[C@H]2[C@@H]3CCC4=CC(=O)C=C[C@]4(C)[C@@]3(F)[C@@H](O)C[C@]2(C)[C@@]1(O)C(=O)CO [Dexamethasone] |  | 9/10 | 1/10 | 0/10 | (90%) | (10%) | (0%)
